Data taken from ChEMBL document CHEMBL5244211, “Current anti-diabetic agents and their molecular targets: A review” (Eur J Med Chem, 2018).

Columns and labels:
[1] = Inhibition of bovine kidney ALR1 in presence of NADPH by UV spectrophotometric analysis; format: tissue-based, Bos taurus
[2] = Inhibition of calf lens ALR2 using glyceraldehyde as substrate incubated for 5 mins in presence of NADPH by UV-spectrophotometric analysis; format: tissue-based, Bos taurus
Dipeptidyl peptidase 4 [3] = biological target: T1, Dipeptidyl peptidase 4 (Homo sapiens, UniProt P27487); assay: Inhibition of DPP4 (unknown origin)
T1 sequence (P27487 whole entry): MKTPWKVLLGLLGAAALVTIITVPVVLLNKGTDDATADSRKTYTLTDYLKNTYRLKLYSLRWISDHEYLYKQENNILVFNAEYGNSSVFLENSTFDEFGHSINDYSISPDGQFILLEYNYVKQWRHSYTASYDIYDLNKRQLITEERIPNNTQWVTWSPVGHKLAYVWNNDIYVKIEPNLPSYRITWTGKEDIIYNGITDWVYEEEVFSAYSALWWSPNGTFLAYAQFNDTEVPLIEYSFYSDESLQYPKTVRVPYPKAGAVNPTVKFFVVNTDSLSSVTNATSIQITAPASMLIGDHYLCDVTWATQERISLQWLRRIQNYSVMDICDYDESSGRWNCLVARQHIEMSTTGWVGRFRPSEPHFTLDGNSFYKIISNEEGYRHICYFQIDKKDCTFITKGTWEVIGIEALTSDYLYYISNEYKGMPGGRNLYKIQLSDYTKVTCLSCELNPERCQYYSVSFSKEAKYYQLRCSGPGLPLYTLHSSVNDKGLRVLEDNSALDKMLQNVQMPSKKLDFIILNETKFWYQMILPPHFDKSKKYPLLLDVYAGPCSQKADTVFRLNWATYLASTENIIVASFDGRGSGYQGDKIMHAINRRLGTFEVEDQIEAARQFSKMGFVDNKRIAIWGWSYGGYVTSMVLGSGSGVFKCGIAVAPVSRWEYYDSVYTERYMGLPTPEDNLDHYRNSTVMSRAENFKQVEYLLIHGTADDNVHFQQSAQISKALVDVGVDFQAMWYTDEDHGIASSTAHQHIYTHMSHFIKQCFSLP

[4] = Inhibition of Calf ALR2 in presence of NADPH by UV spectrophotometric analysis; set-up: species or system Bos taurus
Alpha-glucosidase = Alpha-glucosidase (Saccharomyces cerevisiae S288c, UniProt P53341+P38158+P07265); assay: Inhibition of Saccharomyces cerevisiae alpha-glucosidase using p-nitrophenol-alpha-D-glucopyranoside as substrate incubated for 15 mins by spectrophotometric method; format: protein assay
[5] = biological target: T2, Alpha-glucosidase (Saccharomyces cerevisiae S288c) (UniProt P53341+P38158+P07265); assay: Inhibition of Saccharomyces cerevisiae alpha-glucosidase assessed as dissociation rate constant (k1) using p-nitrophenol-alpha-D-glucopyranoside as substrate by Lineweaver-Burk plot analysis; format: protein assay
[6] = biological target: T2, Alpha-glucosidase (Saccharomyces cerevisiae S288c); assay: Inhibition of Saccharomyces cerevisiae alpha-glucosidase assessed as dissociation rate constant (k2) using p-nitrophenol-alpha-D-glucopyranoside as substrate by Lineweaver-Burk plot analysis; format: protein assay
Dipeptidyl peptidase 4 [7] = biological target: T1, Dipeptidyl peptidase 4; assay: Inhibition of DPP4 (unknown origin) using Gly-Pro-AMC as substrate incubated for 20 mins by spectroscopic analysis
Glucagon receptor = Glucagon receptor (Homo sapiens, UniProt P47871); assay: Inhibition of human GCGR receptor
Chain of Glucagon receptor (P47871 whole entry): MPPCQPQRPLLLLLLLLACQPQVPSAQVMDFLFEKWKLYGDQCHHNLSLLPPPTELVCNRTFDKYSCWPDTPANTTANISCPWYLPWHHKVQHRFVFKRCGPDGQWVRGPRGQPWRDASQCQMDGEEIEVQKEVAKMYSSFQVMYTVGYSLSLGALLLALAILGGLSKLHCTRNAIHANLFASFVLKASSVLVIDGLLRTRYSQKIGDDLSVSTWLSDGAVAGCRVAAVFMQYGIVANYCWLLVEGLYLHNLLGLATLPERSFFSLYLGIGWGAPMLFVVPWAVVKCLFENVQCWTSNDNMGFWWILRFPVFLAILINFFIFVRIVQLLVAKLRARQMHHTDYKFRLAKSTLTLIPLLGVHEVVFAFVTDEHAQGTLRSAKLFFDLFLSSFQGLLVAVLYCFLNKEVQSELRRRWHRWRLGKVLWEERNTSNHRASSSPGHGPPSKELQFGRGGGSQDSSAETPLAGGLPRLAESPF

Dipeptidyl peptidase 4 [8] = biological target: T1, Dipeptidyl peptidase 4; assay: Inhibition of human recombinant DPP4 using H-Gly-Pro-AMC as substrate incubated for 10 mins by microplate reader analysis
[9] = biological target: T3, Tyrosine-protein phosphatase non-receptor type 1 (Homo sapiens, UniProt P18031); assay: Inhibition of PTP1B (unknown origin)
T3 sequence (P18031 whole entry): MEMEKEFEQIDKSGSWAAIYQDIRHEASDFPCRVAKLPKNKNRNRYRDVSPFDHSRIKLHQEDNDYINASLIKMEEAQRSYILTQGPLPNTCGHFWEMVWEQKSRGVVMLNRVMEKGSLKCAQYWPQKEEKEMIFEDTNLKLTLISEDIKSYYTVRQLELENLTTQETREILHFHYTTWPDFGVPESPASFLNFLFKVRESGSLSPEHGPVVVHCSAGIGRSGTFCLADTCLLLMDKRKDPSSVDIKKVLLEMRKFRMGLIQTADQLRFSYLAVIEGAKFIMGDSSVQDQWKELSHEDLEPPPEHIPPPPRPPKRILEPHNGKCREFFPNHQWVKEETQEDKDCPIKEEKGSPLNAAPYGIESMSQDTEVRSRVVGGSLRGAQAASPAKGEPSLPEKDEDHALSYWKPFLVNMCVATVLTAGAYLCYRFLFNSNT

[10] = biological target: T4, Tyrosine-protein phosphatase non-receptor type 2 (Homo sapiens, UniProt P17706); assay: Inhibition of TC-PTP (unknown origin)
T4 sequence (P17706 whole entry): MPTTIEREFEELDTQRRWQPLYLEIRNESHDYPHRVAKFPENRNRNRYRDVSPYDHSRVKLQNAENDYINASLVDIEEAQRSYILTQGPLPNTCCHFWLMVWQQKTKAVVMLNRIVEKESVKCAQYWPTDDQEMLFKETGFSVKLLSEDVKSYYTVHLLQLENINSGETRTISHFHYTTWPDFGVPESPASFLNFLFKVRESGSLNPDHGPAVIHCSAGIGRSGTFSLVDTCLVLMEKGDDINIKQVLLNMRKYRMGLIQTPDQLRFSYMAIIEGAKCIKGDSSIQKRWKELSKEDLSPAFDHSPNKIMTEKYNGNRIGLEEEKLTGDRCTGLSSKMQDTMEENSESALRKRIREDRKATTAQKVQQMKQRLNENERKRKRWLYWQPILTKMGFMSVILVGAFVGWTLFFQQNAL

Homo sapiens = species: Homo sapiens; assay: Selectivity ratio of IC50 for inhibition of TC-PTP (unknown origin) to IC50 for inhibition of PTP1B (unknown origin)
[11] = biological target: T5, Fructose-1,6-bisphosphatase 1 (Rattus norvegicus) (UniProt P19112); assay: Inhibition of FBPase in rat Primary hepatocyte assessed as reduction in glucose production at 160 uM; format: cell-based
T5 sequence (whole entry): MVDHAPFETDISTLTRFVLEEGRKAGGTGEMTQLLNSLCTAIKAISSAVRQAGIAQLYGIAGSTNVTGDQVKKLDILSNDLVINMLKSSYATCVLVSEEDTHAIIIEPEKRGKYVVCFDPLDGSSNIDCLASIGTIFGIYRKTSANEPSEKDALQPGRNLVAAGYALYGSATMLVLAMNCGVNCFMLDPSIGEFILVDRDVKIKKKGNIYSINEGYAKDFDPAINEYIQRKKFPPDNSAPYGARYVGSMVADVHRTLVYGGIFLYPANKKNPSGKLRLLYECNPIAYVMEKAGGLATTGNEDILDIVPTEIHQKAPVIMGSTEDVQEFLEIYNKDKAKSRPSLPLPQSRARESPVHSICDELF

[12] = biological target: T6, Fructose-1,6-bisphosphatase 1 (Rattus norvegicus, UniProt P19112); assay: Inhibition of FBPase in rat Primary hepatocyte assessed as reduction in glucose production; format: cell-based
T6 sequence (P19112 whole entry): T5 sequence (whole entry)

[13] = biological target: Free fatty acid receptor 1 (Homo sapiens, UniProt O14842); assay: Agonist activity at human GPR40 expressed in HEK293 cells incubated for 18 to 24 hrs by HTRF assay; format: cell-based
Chain of Free fatty acid receptor 1 (O14842 whole entry): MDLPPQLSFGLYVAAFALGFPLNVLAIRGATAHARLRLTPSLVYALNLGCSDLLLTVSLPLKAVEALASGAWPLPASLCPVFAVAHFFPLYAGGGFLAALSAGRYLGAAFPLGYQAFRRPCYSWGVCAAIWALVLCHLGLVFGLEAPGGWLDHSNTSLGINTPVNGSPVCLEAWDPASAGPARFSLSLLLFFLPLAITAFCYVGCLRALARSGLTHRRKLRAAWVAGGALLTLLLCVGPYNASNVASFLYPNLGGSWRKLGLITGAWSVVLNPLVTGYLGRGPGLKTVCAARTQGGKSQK

Q: For `CCCC(CCC)C(=O)O` [VALPROIC ACID], which IC50 [1] is on record?
A: 57400 nM

Q: With `O=C1NC(=O)[C@@]2(CCOc3ccc(F)cc32)N1` [SORBINIL] as the compound, how does the IC50 [2] read?
A: 3.1 nM

Q: For `CC#CCn1c(N2CCC[C@@H](N)C2)cc(=O)n(Cc2nc(C)c3cc(C)ccc3n2)c1=O`, which IC50 (Dipeptidyl peptidase 4 [3]) is on record?
A: 5.78 nM

Q: Which IC50 [4] does the source give for `CC1=C(CC(=O)O)c2cc(F)ccc2/C1=C\c1ccc([S+](C)[O-])cc1` (stereo unspecified) here?
A: 293 nM

Q: For `Cc1cc2c(c(=O)[nH]1)C(=O)O/C2=C\c1cc(Br)cs1`, which IC50 (Alpha-glucosidase) is on record?
A: 240 nM

Q: What about the Kdiss [5] of the same compound?
A: 0.22 µM

Q: What about the Kdiss [6] of the same compound?
A: 0.25 µM

Q: With `O=C(CNc1nc(Nc2ccc(S(=O)(=O)Nc3nccs3)cc2)nc(N2CCOCC2)n1)Nc1ccc(F)cc1` as the compound, how does the IC50 (Dipeptidyl peptidase 4 [7]) read?
A: 2.32 nM

Q: With `Cc1ccc(-c2nn(-c3ccccc3)cc2/C=C2\SC(=S)N(c3cccc(Br)c3)C2=O)cc1` as the compound, how does the IC50 [2] read?
A: 1220 nM

Q: Which Ki (Glucagon receptor) does the source give for `Cc1cc(O[C@@H](CCC(F)(F)F)c2ccc(C(=O)NCCC(=O)O)cc2)cc(C)c1-c1ccc(C(C)(C)C)cc1` [ADOMEGLIVANT] here?
A: 6.6 nM

Q: For `Nc1cc(Cl)ccc1/C(=N/Nc1nc(-c2cc3ccccc3oc2=O)cs1)c1ccccc1`, which IC50 [1] is on record?
A: 459 nM

Q: What about the IC50 [4] of the same compound?
A: 110 nM

Q: With `NNc1nc(NN)nc(N2C(=O)CSC2=O)n1` as the compound, how does the IC50 (Dipeptidyl peptidase 4 [8]) read?
A: 6250 nM

Q: Which IC50 [9] does the source give for `COc1cc(/C=C2\SC(=S)N(Cc3ccc(C(=O)O)cc3)C2=O)ccc1OCc1ccccc1` here?
A: 1100 nM

Q: What about the IC50 [10] of the same compound?
A: 3500 nM

Q: And the Ratio IC50 (Homo sapiens)?
A: 2

Q: With `Oc1cc(Cc2cc(O)c(Br)c(Br)c2Br)c(Br)c(Br)c1O` as the compound, how does the IC50 [9] read?
A: 2400 nM

Q: What does the source list for `Cc1ccc(-c2nnc(-c3cccc(NC(=O)CCCCc4nnn[nH]4)c3)o2)cc1`?
A: inhibition [11]: 42%; IC50 [12]: 167000 nM

Q: For `Cc1cc(OCc2ccc(C(=O)O)cc2)ccc1/C=C1\SC(=S)N(Cc2ccc(C(=O)O)cc2)C1=O`, which IC50 [9] is on record?
A: 240 nM

Q: With `COc1cc(N2CCC(Oc3ccc(N4N=C(C(F)(F)F)[C@@H](C)C4CC(=O)O)cc3)[C@H](N)C2)c(Cl)cn1` (stereo partly specified) as the compound, how does the EC50 [13] read?
A: 71 nM
